For the test, the target named is ROCK2 (Homo sapiens, UniProt O75116). In words: ROCK2 kinase inhibitor activity test (HTRF). In kind it is biochemical. Particulars: ROCK2 1 nM, substrate 500 nM, ATP 6 uM, 1.5 hours at room temperature, read-out: ROCK2 kinase inhibitor activities (IC50). As for the experimental part: ROCK2 Kinase Inhibitor Activity Test
1) 4× ROCK2 reaction solution, 4×ATP reaction solution, 4× substrate solution, and 4× compound solution were prepared according to experimental requirements.
2) 2.5 μL of 4× kinase solution and 2.5 μL of diluted 4× test compound solutions with different concentration gradients were added to a 384-well plate. 2 replicate wells were provided for each concentration, and an enzyme solution blank control group and a negative control group (DMSO group) were provided at the same time. Centrifugation was performed at 1000 rpm for 1 minute, and the enzyme and the compounds were mixed. 2.5 μL of 4× substrate solution was added to the 384-well plate, centrifugation was performed at 1000 rpm for 1 minute, 2.5 μL of 4× ATP solution was added to the 384-well plate, centrifugation was performed at 1000 rpm for 1 minute to start the enzyme reaction, and incubation was performed at room temperature for 1.5 hours.
The final concentration of each component of the ROCK2 reaction was: ROCK2: 1 nM, substrate: 500 nM, ATP: 6 uM, and the final concentration range of the test compounds was: 100 nM to 5 pM.
3) 4× Streptavidin-XL-665 detection solution was prepared according to experimental requirements.
4) After the enzyme reaction was completed, 5 ul of 4× Streptavidin-XL-665 detection solution was added to each well of the 384-well plate, and centrifugation was performed at 1000 rpm for 1 minute. 5 μL of 4×STK Antibody-cryptate detection antibody solution was added to each well of the 384-well plate, centrifugation was performed at 1000 rpm for 1 minute, and incubation was performed for 1 hour at room temperature.
5) After antibody incubation was completed, the signal value of each well was measured by the HTRF program on an Envision plate reader.
1) Taking the enzyme solution blank control group as 100% inhibition rate and the negative control group (DMSO group) as 0% inhibition rate, the percentage inhibition rate corresponding to each concentration of the test compound was calculated.
2) In the GraphPad Prism software, a nonlinear regression analysis was performed on the logarithm of the concentrations of the test compounds and the corresponding percentage inhibition rates to obtain the half-inhibitory concentrations (IC50) of the test compounds.
The ROCK2 kinase inhibitor activities (IC50) of the compounds detected by this method are as follows: […]

Chain of ROCK2 (O75116 whole entry): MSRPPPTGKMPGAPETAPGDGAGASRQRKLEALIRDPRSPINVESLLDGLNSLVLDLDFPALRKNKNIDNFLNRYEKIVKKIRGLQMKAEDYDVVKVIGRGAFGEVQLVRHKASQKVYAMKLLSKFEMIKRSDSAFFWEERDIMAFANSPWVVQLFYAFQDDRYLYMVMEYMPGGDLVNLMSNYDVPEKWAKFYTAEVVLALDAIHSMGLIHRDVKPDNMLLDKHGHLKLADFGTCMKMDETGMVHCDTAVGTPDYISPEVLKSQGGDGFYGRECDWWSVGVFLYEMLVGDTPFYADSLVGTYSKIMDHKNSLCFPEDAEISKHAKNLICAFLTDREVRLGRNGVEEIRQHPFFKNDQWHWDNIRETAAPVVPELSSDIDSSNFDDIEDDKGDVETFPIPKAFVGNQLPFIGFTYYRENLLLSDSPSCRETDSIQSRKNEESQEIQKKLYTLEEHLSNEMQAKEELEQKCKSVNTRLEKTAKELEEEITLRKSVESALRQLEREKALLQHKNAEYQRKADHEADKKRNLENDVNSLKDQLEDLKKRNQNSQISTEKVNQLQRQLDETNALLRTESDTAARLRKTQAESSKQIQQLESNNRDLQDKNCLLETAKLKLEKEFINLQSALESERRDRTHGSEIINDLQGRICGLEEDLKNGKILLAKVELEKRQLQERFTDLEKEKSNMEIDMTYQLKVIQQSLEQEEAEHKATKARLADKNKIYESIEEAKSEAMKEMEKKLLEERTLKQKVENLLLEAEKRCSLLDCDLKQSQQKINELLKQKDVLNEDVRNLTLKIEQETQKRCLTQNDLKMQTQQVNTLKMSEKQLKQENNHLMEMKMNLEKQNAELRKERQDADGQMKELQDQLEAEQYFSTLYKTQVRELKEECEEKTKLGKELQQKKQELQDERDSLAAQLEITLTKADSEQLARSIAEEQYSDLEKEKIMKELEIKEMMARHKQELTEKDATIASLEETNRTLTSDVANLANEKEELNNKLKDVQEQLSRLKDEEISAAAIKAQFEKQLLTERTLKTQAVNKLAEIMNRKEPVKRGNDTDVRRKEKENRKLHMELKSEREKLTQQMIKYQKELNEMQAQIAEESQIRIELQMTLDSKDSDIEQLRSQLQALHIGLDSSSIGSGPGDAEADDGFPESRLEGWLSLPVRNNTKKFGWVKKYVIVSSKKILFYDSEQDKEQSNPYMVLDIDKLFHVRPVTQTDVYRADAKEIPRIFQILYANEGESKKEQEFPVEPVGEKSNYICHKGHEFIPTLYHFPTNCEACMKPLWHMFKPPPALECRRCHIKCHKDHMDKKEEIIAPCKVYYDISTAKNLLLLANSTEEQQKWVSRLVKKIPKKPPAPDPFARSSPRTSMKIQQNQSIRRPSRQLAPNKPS

For `NC[C@@H](C(=O)Nc1cc2ccncc2s1)c1ccc(COC(=O)c2cccc(CO[N+](=O)[O-])c2)cc1` [Example 21, (S)-4-(3-amino-1-oxo-1-(thieno[2,3-c]pyridin-2-ylamino)prop-2-yl)benzyl 3-((nitrooxy)methyl)benzoate], the IC50 (as a rule, the concentration needed to halve the response being measured) was 1.23 nM.
Take `NC[C@@H](C(=O)Nc1ccc2cnsc2c1)c1ccc(CO[N+](=O)[O-])cc1` [Example 4, (S)-4-(3-amino-1-(benzo[d]isothiazol-6-ylamino)-1-oxoprop-2-yl)benzyl nitrate]: the IC50 came out at 1.78 nM.
Then `NC[C@@H](C(=O)Nc1cc2ccncc2s1)c1ccc(COC(=O)[C@@H]2CCCN2CCO[N+](=O)[O-])cc1` [Example 39], with 29.2 nM; and `NC[C@@H](C(=O)Nc1cc2ccncc2s1)c1ccc(COC(=O)[C@H]2C[C@H](O[N+](=O)[O-])C2)cc1` [Example 25, 4-((S)-3-amino-1-oxo-1-(thieno[2,3-c]pyridin-2-ylamino)propan-2-yl)benzyl (1r,3S)-3-(nitrooxy)cyclobutane-1-carboxylate], with 1.78 nM.
Under `CC(C)(CCCO[N+](=O)[O-])C(=O)OCc1ccc([C@@H](CN)C(=O)Nc2cc3ccncc3s2)cc1` [Example 30, (S)-4-(3-amino-1-oxy-1-(thieno[2,3-c]pyridin-2-ylamino)prop-2-yl)benzyl 2,2-dimethyl-5-(nitrooxy)valerate] stands 16.5 nM; under `NC[C@@H](C(=O)Nc1cc2ccncc2s1)c1ccc(COC(=O)[C@H]2CC[C@@H](O[N+](=O)[O-])CC2)cc1` [Example 19, 4-((S)-3-amino-1-oxy-1-(thieno[2,3-c]pyridin-2-ylamino)prop-2-yl)benzyl(1s,4R)-4-(nitrooxy)cyclohexane-1-carboxylate], 1.33 nM.
As to `NC[C@@H](C(=O)Nc1cc2ccncc2s1)c1ccc(COC(=O)c2ccc(CO[N+](=O)[O-])cc2)cc1` [Example 22, (S)-4-(3-amino-1-oxo-1-(thieno[2,3-c]pyridin-2-ylamino)prop-2-yl)benzyl 4-((nitrooxy)methyl)benzoate], the IC50 turned out to be 1.6 nM.
On to `NCC(C(=O)Nc1ccc2cnccc2c1)c1ccc(CO[N+](=O)[O-])cc1` (centres unmarked) [Example 2, (3-amino-1-(isoquinolin-6-ylamino)-1-oxoprop-2-yl)benzyl nitrate], for which the IC50 is 5.59 nM.
Then `NCC(C(=O)Nc1cc2ccncc2s1)c1ccc(CCCCO[N+](=O)[O-])cc1` (centres unmarked) [Example 10, 4-(4-(3-amino-1-oxo-1-(thieno[2,3-c]pyridin-2-ylamino)prop-2-yl)phenyl)butyl nitrate], with 19.3 nM; and `NCC(C(=O)Nc1cc2ccncc2s1)c1ccc(CCO[N+](=O)[O-])cc1` (centres unmarked) [Example 3], with 10.8 nM.
Under `NC[C@@H](C(=O)Nc1cc2ccncc2s1)c1ccc(COC(=O)C2C[C@@H](O[N+](=O)[O-])[C@H](O[N+](=O)[O-])C2)cc1` [Example 37, (3R,4R)-4-((S)-3-amino-1-oxy-1-(thieno[2,3-c]pyridin-2-ylamino)propan-2-yl)benzyl 3,4-bis(nitrooxy)cyclopentane carboxylate] stands 1.43 nM.
With `Cc1ccc(CCO[N+](=O)[O-])cc1C(=O)OCc1ccc([C@@H](CN)C(=O)Nc2cc3ccncc3s2)cc1` [Example 18], the IC50 stood at 4.62 nM.
With `NC[C@@H](C(=O)Nc1cc2c(F)cncc2s1)c1ccc(CO[N+](=O)[O-])cc1` [Example 12, (S)-4-(3-amino-1-((4-fluorothieno[2,3-c]pyridin-2-yl)amino)-1-oxoprop-2-yl)benzyl nitrate], the IC50 was determined as 2.95 nM.
Turning to `NC[C@@H](C(=O)Nc1cc2cnccc2s1)c1ccc(COC(=O)CC[C@H](CO[N+](=O)[O-])O[N+](=O)[O-])cc1` [Example 33, 4-((S)-3-amino-1-oxy-1-(thieno[2,3-c]pyridin-2-ylamino)prop-2-yl)benzyl(R)-4,5-bis(nitrooxy)valeric acid], the IC50 came out at 1.18 nM.
Take `NC[C@@H](C(=O)Nc1cc2ccncc2s1)c1ccc(COC(=O)[C@H]2C[C@@H](CO[N+](=O)[O-])C2)cc1` [Example 34, (1S,3R)-4-((S)-3-amino-1-oxy-1-(thieno[2,3-c]pyridin-2-ylamino)propan-2-yl)benzyl 3-((nitrooxy)methyl)cyclobutane-1-carboxylate]: the IC50 worked out at 1.04 nM.
Turning to `Cc1cc(CCO[N+](=O)[O-])ccc1C(=O)OCc1ccc([C@@H](CN)C(=O)Nc2cc3ccncc3s2)cc1` [Example 17], the IC50 worked out at 5.44 nM.
In the case of `CC(CO[N+](=O)[O-])(CO[N+](=O)[O-])C(=O)OCc1ccc([C@@H](CN)C(=O)Nc2cc3ccncc3s2)cc1` [Example 26, (S)-4-(3-amino-1-oxo-1-(thieno[2,3-c]pyridin-2-ylamino)prop-2-yl)benzyl 2-methyl-3-(nitrooxy)-2-((nitrooxy)methyl)propionate], the IC50 amounted to 9.9 nM.
Consider `NC[C@@H](C(=O)Nc1cc2ccncc2s1)c1ccc(COC(=O)C2CCC(CO[N+](=O)[O-])CC2)cc1` (stereo partly drawn) [Example 38, (1r,4S)-4-((S)-3-amino-1-oxy-1-(thieno[2,3-c]pyridin-2-ylamino)propan-2-yl)benzyl 4-((nitrooxy)methyl)cyclohexanecarboxylic acid], for which the IC50 came to 19.7 nM.
On to `NC[C@@H](C(=O)Nc1cc2ccncc2s1)c1ccc(COC(=O)C2CC(CO[N+](=O)[O-])(CO[N+](=O)[O-])C2)cc1` [Example 36, (S)-4-(3-amino-1-oxy-1-(thieno[2,3-c]pyridin-2-ylamino)prop-2-yl)benzyl 3,3-bis((nitrooxy)methyl)cyclobutane-1-carboxylate], for which the IC50 was 32.5 nM.
Regarding `NC[C@@H](C(=O)Nc1cc2ccncc2s1)c1ccc(COC(=O)C2(CO[N+](=O)[O-])CC2)cc1` [Example 32, (S)-4-(3-amino-1-oxy-1-(thieno[2,3-c]pyridin-2-ylamino)propan-2-yl)benzyl 1-((nitrooxy)methyl)cyclopropane carboxylate], the IC50 was determined as 3.11 nM.
Under “4-((S)-3-amino-1-oxy-1-(thieno[2,3-c]pyridin-2-ylamino)prop-2-yl)benzyl(1s,4R)-4-((nitrooxy)methyl)cyclohexane-1-carboxylic acid [Example 27]” stands 4.62 nM; under `NC[C@@H](C(=O)Nc1cc2ccncc2s1)c1ccc(COC(=O)c2ccc(CCO[N+](=O)[O-])cc2)cc1` [Example 16, (S)-4-(3-amino-1-oxy-1-(thieno[2,3-c]pyridin-2-ylamino)prop-2-yl)benzyl 4-(2-(nitrooxy)ethyl)benzoate], 1.86 nM.
Take `NC[C@@H](C(=O)Nc1cc2ccncc2s1)c1ccc(COC(=O)C2CC(O[N+](=O)[O-])C2)cc1` (some centres unmarked) [Example 6]: the IC50 stood at 1.3 nM.
For `NC[C@@H](C(=O)Nc1cc2ccncc2s1)c1ccc(COC(=O)NCCO[N+](=O)[O-])cc1` [Example 24, (S)-4-(3-amino-1-oxy-1-(thieno[2,3-c]pyridin-2-ylamino)prop-2-yl)benzyl(2-(nitrooxy)ethyl)carbamate], the IC50 was 0.45 nM.
`NC[C@@H](C(=O)Nc1cc2ccncc2s1)c1ccc(COC(=O)C2CC(CO[N+](=O)[O-])C2)cc1` (stereo partly drawn) [Example 23, (S)-4-(3-amino-1-oxy-1-(thieno[2,3-c]pyridin-2-ylamino)propan-2-yl)benzyl 3-((nitrooxy)methyl)cyclobutane-1-carboxylate]: the IC50 amounted to 1.13 nM.
Then `NCC(C(=O)Nc1cc2ccncc2s1)c1ccc(OC(CO[N+](=O)[O-])CO[N+](=O)[O-])cc1` (centres unmarked) [Example 14, 2-(4-(3-amino-1-oxo-1-(thieno[2,3-c]pyridin-2-ylamino)propan-2-yl)phenoxy)propane-1,3-dinitrate], with 77.3 nM; and `NC[C@@H](C(=O)Nc1cc2ccncc2s1)c1ccc(COC(=O)[C@H]2C[C@H](CO[N+](=O)[O-])C2)cc1` [Example 35, (1R,3S)-4-((S)-3-amino-1-oxy-1-(thieno[2,3-c]pyridin-2-ylamino)propan-2-yl)benzyl 3-((nitrooxy)methyl)cyclobutane-1-carboxylate], with 6.5 nM.
As for `NC[C@@H](C(=O)Nc1cc2ccncc2s1)c1ccc(COC(=O)CCCCCO[N+](=O)[O-])cc1` [Example 31, (S)-4-(3-amino-1-oxy-1-(thieno[2,3-c]pyridin-2-ylamino)propan-2-yl)benzyl 6-(nitrooxy)hexanoate], the IC50 worked out at 1.58 nM.
As for `NC[C@@H](C(=O)Nc1cc2ccncc2s1)c1ccc(COC(=O)CC2(CO[N+](=O)[O-])CC2)cc1` [Example 29, (S)-4-(3-amino-1-oxy-1-(thieno[2,3-c]pyridin-2-ylamino)prop-2-yl)benzyl 2-(1-((nitrooxy)methyl)cyclopropyl acetate], the IC50 is 2.74 nM.

(Values after US20220332726A1, “NITROXIDE DERIVATIVE OF ROCK KINASE INHIBITOR” (VIVAVISION (SHANGHAI) LTD, priority 2020, published 2022).)
